Laboratory results: patent EP0644191A1, “PYRIDINE COMPOUND AND MEDICINAL USE THEREOF” (YOSHITOMI PHARMACEUTICAL INDUSTRIES, LTD., priority 1992, dated 1993)
Values after ≈ are worked out from the molar mass of the structure shown.

What was measured:
[1] = system: Escherichia coli NIHJ JC-2; experiment: Antibacterial spectrum, agar plate dilution MIC; type: cell-based; conditions: NIHJJC2, 37°C, 8% CO₂, 3-4 days
Description: (§1) The test bacterium precultured in Muller-Hinton liquid medium was diluted with the same medium to give a bacterial solution of about 10⁶ cell/ml for inoculation. The dilute bacterial solution was spot inoculated with a microplanter on an agar plate containing 2-fold dilution concentration series of the test compound and the cells were incubated at 37°C under 8% CO₂ for 3-4 days. The minimum inhibitory concentration (MIC) in respective strains was determined, based on which MIC was calculated.

[2] = system: Pseudomonas aeruginosa IFO 12582; experiment: Antibacterial spectrum, agar plate dilution MIC; type: cell-based; conditions: IFO12582, 37°C, 8% CO₂, 3-4 days, read-out: MIC P. aeruginosa
Description: as §1

[3] = system: Staphylococcus aureus FDA 209P; experiment: Antibacterial spectrum, agar plate dilution MIC; type: cell-based; conditions: FDA209P, 37°C, 8% CO₂, 3-4 days, read-out: MIC S. aureus
Description: as §1

[4] = system: Helicobacter pylori; experiment: Antibacterial activity (in vitro), agar plate dilution method, clinical isolates (18 strains); type: cell-based; conditions: 18 clinical isolates, 37°C, 8% CO₂, 3-4 days
Description: Antibacterial activity (in vitro) of the compound of the present invention against Helicobacter pylori was determined by the following agar plate dilution method. […] The cultures were diluted with Brucella broth to give a concentration of approximately 10⁶ cell/ml. The diluted bacterial solution was spot inoculated with a microplanter on an agar plate containing 2-fold dilution concentration series of the test compound. The cells were incubated at 37°C under 8% CO₂ for 3-4 days. The minimum inhibitory concentration (MIC) in respective strains was determined, based on which MIC₅₀ and MIC₉₀ were calculated.

[5] = system: Candida albicans IFO 1060; experiment: Antifungal spectrum, agar plate dilution MIC; type: cell-based; conditions: IFO1060, 37°C, 8% CO₂, 3-4 days
[6] = Aspirin/hydrochloric acid-induced gastric ulcer in rats; type: in vivo; conditions: for Ulcer index (mean±standard deviation): 30 min before aspirin 100 mg/kg, stomach removed 4 hours later, control 5.0±0.51; for Change (%): change of ulcer index versus control
Description: Male rats weighing about 200 g (16 rats per group) were fasted for 20 hours and the test solution was orally administered to the rats. Thirty minutes later, aspirin (100 mg/kg) containing 0.3N hydrochloric acid was orally administered.
Four hours later, the stomach was removed and the area which developed ulcer was examined. A square root of the total ulcer area was taken as an ulcer index.

[7] = Acute toxicity in mice, observed for 5 days; type: in vivo
Source text: As a result, no death case was found.

MIC [1] [µg/mL]	MIC [2] [µg/mL]	MIC [3] [µg/mL]	MIC50 [4] [µg/mL]	MIC90 [4] [µg/mL]	MIC [5] [µg/mL]	Structure (SMILES)	Ulcer index (mean±standard deviation) ([6]; 10 mg/kg p.o.)	Change (%) ([6]; 10 mg/kg p.o.)	Ulcer index (mean±standard deviation) ([6]; 30 mg/kg p.o.)	Change (%) ([6]; 30 mg/kg p.o.)	death ([7]; intraperitoneally 300 mg/kg)	death ([7]; orally 1000 mg/kg)
> 100	> 100	> 100	≤ 0.006	0.012 (≈ 0.03 µM)	> 100	Cc1c(SCCN2CCOCC2)ccnc1CSc1nc2ccccc2[nH]1 [Example 1, 2-(3-methyl-4-(2-morpholinoethylthio)-2-pyridyl)methylthio-1H-benzimidazole]	3.1±0.33	-37	2.3±0.49	-55	–	–
> 100	> 100	> 100	0.025 (≈ 0.0575 µM)	0.05 (≈ 0.115 µM)	> 100	Cc1c(SCCN(C)Cc2ccccc2)ccnc1CSc1nc2ccccc2[nH]1 [Example 3]	–	–	–	–	–	–
–	–	–	0.012 (≈ 0.0268 µM)	0.025 (≈ 0.0558 µM)	–	Cc1c(SCCN2CCc3ccccc3C2)ccnc1CSc1nc2ncccc2[nH]1 [Example 12, 2-((3-methyl-4-(2-(1,2,3,4-tetrahydroisoquinolin-2-yl)ethylthio)-2-pyridyl)methylthio)imidazo[5,4-b]pyridine]	–	–	–	–	–	–
–	–	–	0.05 (≈ 0.116 µM)	0.1 (≈ 0.232 µM)	–	Cc1c(OCCN2CCc3ccccc3C2)ccnc1CSc1nc2ccccc2[nH]1 [Ref. Compound 1, 2-(3-methyl-4-(2-(1,2,3,4-tetrahydroisoquinolin-2-yl)ethoxy)-2-pyridyl)methylthio-1H-benzimidazole, reference compound]	–	–	–	–	–	–
–	–	–	0.05 (≈ 0.112 µM)	0.1 (≈ 0.224 µM)	–	Cc1c(OCCN2CCc3ccccc3C2)ccnc1C[S+]([O-])c1nc2ccccc2[nH]1 (centres unmarked) [Ref. Compound 3, 2-(3-methyl-4-(2-(1,2,3,4-tetrahydroisoquinolin-2-yl)ethoxy)-2-pyridyl)methylsulfinyl-1H-benzimidazole, reference compound]	–	–	–	–	–	–

More lines, now with the values behind:

Structure (SMILES)	MIC [1] [µg/mL]	MIC [2] [µg/mL]	MIC [3] [µg/mL]	MIC50 [4] [µg/mL]	MIC90 [4] [µg/mL]	MIC [5] [µg/mL]	Ulcer index (mean±standard deviation) ([6]; 10 mg/kg p.o.)	Change (%) ([6]; 10 mg/kg p.o.)	Ulcer index (mean±standard deviation) ([6]; 30 mg/kg p.o.)	Change (%) ([6]; 30 mg/kg p.o.)	death ([7]; intraperitoneally 300 mg/kg)	death ([7]; orally 1000 mg/kg)
Cc1c(SCCN2CCc3ccccc3C2)ccnc1CSc1nc2ccccc2[nH]1 [Example 2, 2-(3-methyl-4-(2-(1,2,3,4-tetrahydroisoquinolin-2-yl)ethylthio)-2-pyridyl)methylthio-1H-benzimidazole]	> 100	> 100	> 100	≤ 0.006	≤ 0.006	> 100	–	–	–	–	no death case	no death case
Cc1c(SC2CCN(Cc3ccccc3)CC2)ccnc1CSc1nc2ccccc2[nH]1 [Example 7, 2-(4-(1-benzyl-4-piperidyl)thio-3-methyl-2-pyridyl)methylthio-1H-benzimidazole]	> 100	> 100	> 100	0.012 (≈ 0.026 µM)	0.025 (≈ 0.0543 µM)	> 100	–	–	–	–	–	–
Cc1c(SCC[N+]2([O-])CCOCC2)ccnc1CSc1nc2ccccc2[nH]1 [Example 28, 4-(2-((2-(1H-benzimidazol-2-yl)thiomethyl-3-methyl-4-pyridyl)thio)ethyl)morpholine N-oxide]	> 100	> 100	> 100	0.025 (≈ 0.06 µM)	0.025 (≈ 0.06 µM)	> 100	–	–	–	–	–	–
Cc1c(OCCN(C)Cc2ccccc2)ccnc1C[S+]([O-])c1nc2ccccc2[nH]1 (centres unmarked) [Ref. Compound 2, 2-(3-methyl-4-(2-(N-benzyl-N-methylamino)ethoxy)-2-pyridyl)methylsulfinyl-1H-benzimidazole, reference compound]	–	–	–	0.1 (≈ 0.23 µM)	0.2 (≈ 0.46 µM)	–	–	–	–	–	–	–
